Experimental data from patent US20120178763A1, “Method of Treating Anxious Major Depressive Disorder” (priority 2008, published 2012).
Entries after “also recorded” stand apart in the source; their conditions may differ.

What was measured:
Male Sprague Dawley rats = assay: Learned helplessness procedure; assay type: in vivo, rat; conditions: for Mean Escape Failures ± (SEM): of 50 trials; for Mean Center Crossings ± SEM: gauge of motor activity
Protocol: Male Sprague Dawley rats were exposed to inescapable electrical stimulation for 2 successive, daily 1 hour periods (conditioning), and then subsequently trained to avoid or escape the electrical stimulation by running to the opposite side of the test cage. […] In the training phase, when the electrical stimulation was escapable, the number of escape failures was recorded. Standard shuttle cages (20 L×16 W×21 centimeters H) fitted with a grid floor were used. The chambers could be partitioned with a closed partition or with an archway that allowed the animals to pass between the 2 sides of the cage. A computer controlled and monitored all events in the chamber.
The procedure utilized involved an induction phase and an avoidance training phase. In the induction phase, rats were enclosed in one side of the shuttle cage and electrical stimulation (2 mA, […]) was delivered to the floor of the cage every 2, 5 or 10 seconds (randomly selected for each trial) until 90 electrical stimulations were delivered. Subjects had no opportunity to escape or to avoid the electrical stimulation. Induction was conducted for 2 consecutive days. In the avoidance training phase, a partition with an arch through which the rats could pass was inserted into the center of the shuttle cages. The method employed a standard shuttle avoidance in which a compound, conditioned stimulus (a 5 second presentation of a tone and turning on of a lamp on the side of the rat containing cage) served to indicate impending presentation of electrical stimulation to the floor of the cage. The electrical stimulation was presented for a 5 second period 5 seconds after initiation of the conditioned stimulus. […] A 30 second inter-trial interval was employed. 40 minute avoidance training sessions, consisting of 50 trials were conducted on 2 consecutive days, beginning 48 hours after the final induction session.
Dosages of all compounds are reported as the free base. […] Drug was administered immediately following conditioning and training sessions and approximately 7-8 hrs after the first injection, as well as on the day in the middle of the study when no conditioning or training was conducted. In study 2, imipramine was administered 30 minutes prior to avoidance training whereas in all other circumstances, drug was administered following training.
The primary dependent variable was escape failures during avoidance training. […] T-Tests were used to compare the performance of the vehicle-administered group to drug treated groups. The no-induction group was used to gauge whether learned helplessness was established, by comparison to the vehicle treated group.

rats = assay: Punished responding procedure (modified Geller-Seifter conflict test); conditions: for Rate of responding, Punished responding / Rate of responding, Unpunished responding: 60 minute pretreatment
Source text: In the conflict test, hungry animals were trained to lever-press for food delivery in a standard operant chamber under 2 conditions. In the first condition, referred to as the unsuppressed component, food was delivered on average after 17 lever-presses were made (also called a VR17 schedule of reinforcement). In the second condition, referred to as the suppressed component and signaled by flashing lights inside the operant chamber, food was also delivered following an average of 17 lever-presses, but electric shock was additionally delivered to the floor of the cage under a separate VR17 schedule. Daily sessions consisted of 5 alternating presentations of each component type: suppressed (3 minutes in duration) and unsuppressed (2 minutes in duration).
Compound A was dissolved in distilled deionized water/lactic acid and was administered by mouth in a volume of 1 mL/kg body weight. […] Compound A was administered on Tuesday and Friday and vehicle on Thursday. Monday and Wednesday were washout/baseline days.
Standard 2-lever operant chambers were used (Med Associates). The chambers were fitted with 2 retractable response levers and a stimulus lamp over each of the 2 levers. A pellet dispenser delivered 45 mg food pellets, (Bio Serv) to a cup located inside of the chamber below and between the 2 response levers. A lamp at the top and back of the chamber served as houselights. The grid floors of the operant chambers were interfaced to shock generators and scramblers (Med Associates). All events in the chambers were controlled and monitored by a microprocessor.
There were 2 components in the procedure: 1) an unsuppressed responding component (unpunished) with 2 minutes in duration; and 2) a suppressed responding component (punished) with 3 minutes in duration.
In the unpunished component, the houselights and both stimulus lamps over the response levers were turned on, the lever on the left-hand side of the chamber extended, and a food pellet was delivered following an average of 17 responses on the lever in the chamber (range 3 to 40 responses)—a variable-ratio 17 schedule (VR17).
In the punished component (which followed the unpunished component), the right-hand lever was extended into the chamber; the stimulus lamps and houselights were turned on and off at 1 second intervals, in succession, which served as a cue for this component; and food was available under a VR17 schedule, but was accompanied by an electrical current (0.5 second duration) that was delivered to the grid floor of the chamber under an independent VR17 schedule. The level of the current was adjusted for each individual subject until responding was reduced in the punished component to a level that was about 5% to 10% that of the unpunished component, and ranged from 0.2 mA to 0.75 mA. Unpunished and punished components were separated by 10 second time-out periods in which both response levers were retracted and all stimulus lamps turned off 2 minute unpunished and 3 minute punished components alternated until 5 of each were completed. Daily sessions always began with the unpunished responding component. […] Several doses were tested on a given test day in different subjects. Each dose, then, was tested in different sub-set of rats.
The dependent variables recorded were the rate of responding in unpunished and punished components (total responses/total time under the component) and the number of shocks delivered.

[1] = Efficacious mean plasma exposure in rodent tests of anxiolysis and antidepressant activity; assay type: in vivo; conditions: rodents; separate tests of anxiolysis and antidepressant activity

## CN(C)CCCN1c2ccccc2CCc2ccccc21 [Imipramine, imipramine, reference compound]
Male Sprague Dawley rats; 20 mg/kg by mouth twice a day
  Mean Escape Failures ± (SEM): 2.3 (1)

## CCN(CC)C(=O)c1ccc([C@H](c2cccc(N)c2)N2CCN(Cc3ccc(F)cc3)CC2)cc1 [Example 2, 4-{(R)-(3-aminophenyl)[4-(4-fluorobenzyl)piperazin-1-yl]methyl}-N,N-diethylbenzamide]
Male Sprague Dawley rats; 0.1 mg/kg by mouth twice a day
  Mean Center Crossings ± SEM: 26.6 (0.85)
  Mean Escape Failures ± (SEM): 6.1 (3.4)
Male Sprague Dawley rats; 1 mg/kg by mouth twice a day
  Mean Center Crossings ± SEM: 30.9 (2.9)
  Mean Escape Failures ± (SEM): 3.1 (1.7)
Male Sprague Dawley rats; 10 mg/kg by mouth twice a day
  Mean Center Crossings ± SEM: 26.9 (0.7)
  Mean Escape Failures ± (SEM): 4.9 (2)
Male Sprague Dawley rats; 0.1, 1 and 10 mg/kg by mouth twice a day, only the 2 higher doses significant, listed as Compound A
  effect on escape failures: tended to decrease escape failures; also recorded: produced a decrease in escape failures
rats; 0.21 μmol/kg by mouth
  Percent of control, Punished responding: 107 ± 19.3% of control
  Percent of control, Unpunished responding: 103 ± 1.63% of control
  effect on punished responding: not effective
  Rate of responding, Punished responding: 0.11 ± 0.02
  Rate of responding, Unpunished responding: 2.06 ± 0.11
rats; 0.63 μmol/kg by mouth
  Percent of control, Punished responding: 273 ± 39.2% of control
  Percent of control, Unpunished responding: 92.1 ± 5.12% of control
  Rate of responding, Punished responding: 0.24 ± 0.03
  Rate of responding, Unpunished responding: 2.02 ± 0.14
rats; 2.1 μmol/kg by mouth
  Percent of control, Punished responding: 298 ± 132% of control
  Percent of control, Unpunished responding: 106 ± 5.60% of control
  Rate of responding, Punished responding: 0.18 ± 0.04
  Rate of responding, Unpunished responding: 1.95 ± 0.15
rats; 2.11 μmol/kg by mouth
  increase in punished responding (maximal efficacy): about 300%
rats; 6.3 μmol/kg by mouth
  Percent of control, Punished responding: 207 ± 67.2% of control
  Percent of control, Unpunished responding: 106 ± 2.94% of control
  Rate of responding, Punished responding: 0.17 ± 0.03
  Rate of responding, Unpunished responding: 1.92 ± 0.13
rats; 21.1 μmol/kg by mouth
  Percent of control, Punished responding: 272 ± 100% of control
  Percent of control, Unpunished responding: 95.5 ± 4.08% of control
  Rate of responding, Punished responding: 0.20 ± 0.04
  Rate of responding, Unpunished responding: 1.69 ± 0.12
rats; 0.63, 2.11, 6.3, and 21.1 μmol/kg compared to vehicle controls
  effect on rate of punished responding: increased the rate of punished responding
rats; at the doses tested (0.21 to 21 μmol/kg)
  effect on unpunished responding: did not significantly decrease unpunished responding
rats; modified Geller-Seifter conflict model
  acute anxiolytic activity: has acute anxiolytic activity
rats; observations of test subjects in their home cage
  sedative/hyperactive properties: does not possess sedative/hyperactive properties

## CCN(CC)C(=O)c1ccc([C@H](c2cccc(N)c2)N2CCN(Cc3ccc(F)cc3)CC2)cc1.CCN(CC)C(=O)c1ccc([C@H](c2cccc(N)c2)N2CCN(Cc3ccc(F)cc3)CC2)cc1.O=C(O)/C=C/C(=O)O.O=C(O)/C=C/C(=O)O.O=C(O)/C=C/C(=O)O [Example 3, 4-{(R)-(3-aminophenyl)[4-(4-fluorobenzyl)piperazin-1-yl]methyl}-N,N-diethylbenzamide sesquifumarate]
[1]
  mean plasma exposures shown to be efficacious: ≥ 2 ng/mL

## CN1C(=O)CN=C(c2ccccc2)c2cc(Cl)ccc21 [diazepam, reference compound]
rats; 3.5 μmol/kg by mouth, data not shown
  level of efficacy in the conflict model (punished responding): ~250%
